Values quoted from earlier work in patent publication US20050129762A1, “Extended release pharmaceutical dosage form” (Wyeth, priority 2003, published 2005).
Structures can show the parent of a compound that is named as a salt.

Conditions: plural daily dosing regimen, immediate release tablets

SMILES: COc1ccc(C(CN(C)C)C2(O)CCCCC2)cc1 (centres unmarked) [venlafaxine hydrochloride, 1-[2-(dimethylamino)-1-(4-methoxyphenyl)ethyl]-cyclohexanol]
- Vomiting, share of patients: about seventeen
- nausea, share of patients under treatment: about forty five
